{
  "source": "paper PMC7002129",
  "about": "“The structure of Photosystem I acclimated to far-red light illuminates an ecologically important acclimation process in photosynthesis” (Science Advances, 2020)",
  "key": {"[1]": {"molecular_target": "T1, FRL-PSI (far-red light-acclimated Photosystem I trimer) (Fischerella thermalis, UniProt G6FME9+G6FMF0)", "T1 construct": "gene psaA; native trimer from FRL-grown cells, DM-solubilised, sucrose gradients; 36 subunits (12 per monomer), ~1 MDa; with Photosystem I reaction center subunit II; Photosystem I reaction center subunit IV; Photosystem I reaction center subunit VIII; Photosystem I reaction center subunit XII; Photosystem I 4.8K protein", "experiment": "cryo-EM structure ([…] Å); reversed-phase HPLC of extracted pigments", "assay_type": "binding", "details": "presence shown by HPLC"}, "[2]": {"molecular_target": "T1, FRL-PSI (far-red light-acclimated Photosystem I trimer)", "experiment": "reversed-phase HPLC of extracted pigments", "assay_type": "binding", "details": "native complex; site not assigned (modelled as beta-carotene)"}, "[3]": {"molecular_target": "Far-red light-acclimated Photosystem I (FRL-PSI) monomer from Fischerella thermalis PCC 7521 (Fischerella thermalis PCC 7521) (UniProt G6FW50)", "experiment": "cryo-EM structure; single-particle cryo-EM of trimeric FRL-PSI isolated from FRL-grown F. thermalis; plunge-frozen in 300 mM tricine pH 8.0, 50 mM NaCl; 178,666 particles, C3 symmetry, global resolution 3.19 Å"}},
  "data": [
    {"compound": "C=Cc1c(C=O)c2[n]3c1=CC1=NC(=Cc4c(C)c5c([n]4[Mg]3)C(=C3N=C(C=2)C(C)C3CCC(=O)OCC=C(C)CCCC(C)CCCC(C)CCCC(C)C)C(C(=O)OC)C5=O)C(CC)=C1C", "note": "(stereo not shown) [Chl f]", "values": [
      {"measurement": "cryo-EM structure (3.19 Å); reversed-phase HPLC of extracted pigments", "setting": "[1]; sites A20, A21, B30, B37 modelled as Chl f, assigned indirectly from environment", "value": "sites of Chl A20, Chl A21, Chl B30, and Chl B37, accounting for four"}
    ]},
    {"compound": "CC1=C(/C=C/C(C)=C/C=C/C(C)=C/C=C/C=C(C)/C=C/C=C(C)/C=C/C2=C(C)C(=O)CCC2(C)C)C(C)(C)CCC1", "note": "[echinenone]", "values": [
      {"measurement": "reversed-phase HPLC of extracted pigments", "setting": "[2]", "value": "both complexes contain a mixture of β-carotene and echinenone"}
    ]},
    {"compound": "CC1=C(/C=C/C(C)=C/C=C/C(C)=C/C=C/C=C(C)/C=C/C=C(C)/C=C/C2=C(C)CCCC2(C)C)C(C)(C)CCC1", "note": "[β-carotene]", "values": [
      {"measurement": "cryo-EM structure (3.19 Å); reversed-phase HPLC of extracted pigments", "setting": "[1]; not distinguishable from echinenone in the map", "value": "all carotenoids are modeled as β-carotene (BCR)"}
    ]},
    {"compound": "Far-red light-acclimated Photosystem I (FRL-PSI) monomer from Fischerella thermalis PCC 7521 (from UniProt G6FW50 1-81; G6FQU3 1-72) (complex)", "values": [
      {"measurement": "stoichiometry N", "setting": "[3]", "value": 3}
    ]}
  ]
}
